Source: US9464092B2, “Transient protection of normal cells during chemotherapy” (G1 Therapeutics, Inc., priority 2013, dated 2016)
Where two headings read alike, the source gives them in different places.

Tests used:
CDK2/CyclinA = CDK2/CyclinA (Homo sapiens (Human), UniProt P24941); test: CDK2/CyclinA kinase assay (Nanosyn, Caliper microfluidic); format: biochemical; conditions: Table 2; for IC50: read-out: CDK2/CycA IC50
Protocol: (§1) Selected compounds disclosed herein were tested in CDK4/cyclinD1, CDK6/CycD3 CDK2/CycA and CDK2/cyclinE kinase assays by Nanosyn (Santa Clara, Calif.) to determine their inhibitory effect on these CDKs. The assays were performed using microfluidic kinase detection technology (Caliper Assay Platform). The compounds were tested in 12-point dose-response format in singlicate at Km for ATP. Phosphoacceptor substrate peptide concentration used was 1 μM for all assays and Staurosporine was used as the reference compound for all assays. Specifics of each assay are as described below:
CDK2/CyclinA: Enzyme concentration: 0.2 nM; ATP concentration: 50 μM; Incubation time: 3 hr.

[1] = test system: HS68 cells (human skin fibroblast cell line (Rb-positive)); test: G1 arrest (cellular G1 and S-phase) assay; format: cell-based
Protocol: For determination of cellular fractions in various stages of the cell cycle following various treatments, HS68 cells (human skin fibroblast cell line (Rb-positive)) were stained with propidium iodide staining solution and run on Dako Cyan Flow Cytometer. The fraction of cells in G0-G1 DNA cell cycle versus the fraction in S-phase DNA cell cycle was determined using FlowJo 7.2 0.2 analysis.
The compounds listed in Table 1 were tested for their ability to arrest HS68 cells at the G1 phase of the cell cycle.

CDK4/CyclinD1 = CDK4/CyclinD1 (Homo sapiens (Human), UniProt P11802); test: CDK4/CyclinD1 kinase assay (Nanosyn, Caliper microfluidic); format: biochemical; conditions: Table 2; read-out: CDK4/CycD1 IC50
Protocol: as §1
CDK4/CyclinD1: Enzyme concentration: 1 nM; ATP concentration: 200 μM; Incubation time: 10 hr.

CDK2/CyclinE = CDK2/CyclinE (Homo sapiens (Human), UniProt P24941); test: CDK2/CyclinE kinase assay (Nanosyn, Caliper microfluidic); format: biochemical; conditions: Table 2; for IC50: read-out: CDK2/CycE IC50
Protocol: as §1, with “assays.” for “assays. Specifics of each assay are as described below:”

[2] = test system: HS68 cells (human fibroblast, Rb-positive); test: Cellular wash-out experiment, HS68; format: cell-based
Protocol: EMBO J, 21(12)2936-2945 (2002) and Ruas et al. Mol Cell Biol, 27(12)-4273-4282 (2007)). […] On day 3, one set of treated cell samples were harvested in triplicate (0 Hour sample). Remaining cells were washed two times in PBS-CMF and returned to culture media lacking test compound. Sets of samples were harvested in triplicate at 24, 40, and 48 hours. Upon harvesting cells, samples were stained with propidium iodide staining solution and samples run on Dako Cyan Flow Cytometer. The fraction of cells in G0-G1 DNA cell cycle versus the fraction in S-phase DNA cell cycle was determined using FlowJo 7.2 0.2 analysis.

[3] = test system: HSPC (LKS+) and myeloid progenitor cells (LKS-); conditions: single oral dose 150 mg/kg, mice; cited from earlier work
[4] = humans; cited from earlier work
[5] = PD0332991 pharmacokinetics / HSPC arrest in humans; format: in vivo
Protocol: When calculated half-life was longer than the duration of the experiment, the half-life was expressed as >the longest incubation time. The calculated half-life is also listed in parentheses. […] The timely resumption of cellular proliferation is necessary for tissue repair, and therefore an overly long period of arrest is undesirable in healthy cells such as HSPCs. The characteristics of a CDK4/6 inhibitor that dictate its arresting duration are its pharmacokinetic (PK) and enzymatic half-lives. Once initiated, a G1-arrest in vivo will be maintained as long as circulating compound remains at an inhibitory level, and as long as the compound engages the enzyme. […] […]. […] […]. These observations may explain the severe granulocytopenia seen with PD0332991 in the clinic.

[6] = Grade 3/4 neutropenia and leukopenia; cited from earlier work
[7] = Metabolic stability in liver microsomes; format: in vitro ADME, human, dog, rat, monkey, and mouse; conditions: Sprague-Dawley (rat), liver microsomes, pH 7.4; each of the species tested (human, monkey, dog, rat, mouse), 1 uM
Protocol: Human, mouse, and dog liver microsomes were purchased from Xenotech, and Sprague-Dawley rat liver microsomes were prepared by Absorption Systems. The reaction mixture comprising 0.5 mg/mL of liver microsomes, 100 mM of potassium phosphate, pH 7.4, 5 mM of magnesium chloride, and 1 uM of test compound was prepared. The test compound was added into the reaction mixture at a final concentration of 1 uM. An aliquot of the reaction mixture (without cofactor) was incubated in shaking water bath at 37 deg. C. for 3 minutes. The control compound, testosterone, was run simultaneously with the test compound in a separate reaction. The reaction was initiated by the addition of cofactor (NADPH), and the mixture was then incubated in a shaking water bath at 37 deg. C. Aliquots (100 μL) were withdrawn at 0, 10, 20, 30, and 60 minutes for the test compound and 0, 10, 30, and 60 minutes for testosterone. […] Test compound samples were analyzed using the Orbitrap high resolution mass spectrometer to quantify the disappearance of parent test compound and detect the appearance of metabolites. […] Half-lives were calculated using GraphPad software, fitting to a single-phase exponential decay equation.
When calculated half-life was longer than the duration of the experiment, the half-life was expressed as >the longest incubation time. The calculated half-life is also listed in parentheses. […]

[8] = test system: human renal proximal tubule epithelial cells (Rb-positive); test: Cellular wash-out experiment, renal proximal tubule epithelial cells; format: cell-based; conditions: 300 nM, compared to compounds T, Q, GG, or U
Protocol: Alternatively, the same experiment was done using normal Renal Proximal Tubule Epithelial Cells (Rb-positive) obtained from American Type Culture Collection (ATCC, Manassas, Va.). Cells were grown in an incubator at 37° C. in a humidified atmosphere of 5% CO2 in Renal Epithelial Cell Basal Media (ATCC) supplemented with Renal Epithelial Cell Growth Kit (ATCC) in 37° C. humidified incubator.
Upon harvesting cells, samples were stained with propidium iodide staining solution and samples run on Dako Cyan Flow Cytometer. The fraction of cells in G0-G1 DNA cell cycle versus the fraction in S-phase DNA cell cycle was determined using FlowJo 7.2 0.2 analysis.

[9] = test system: RB-intact, Cdk4/6-dependent cell line (WM2664 or tHS68); test: EdU proliferation, RB-intact Cdk4/6-dependent cell line; conditions: 24 hours
[10] = mice; cited from earlier work
[11] = test system: RB-negative SCLC cell lines (H69, H82, H209, H345, NCI417, or SHP-77); test: EdU proliferation, RB-negative SCLC cell lines; conditions: 24 hours
[12] = Mouse pharmacokinetics (oral gavage / intravenous); format: in vivo, mice
HSPCs (bone marrow) = test: HSPC proliferation in bone marrow by EdU incorporation after oral gavage; format: in vivo, mice
Protocol: Mice were then sacrificed at the indicated times (0, 12, 24, 36, or 48 hours following compound administration), and bone marrow was harvested (n=3 mice per time point), as previously described (Johnson et al. J. Clin. Invest. (2010) 120(7), 2528-2536). Four hours before the bone marrow was harvested, mice were treated with 100 μg of EdU by intraperitoneal injection (Invitrogen). Bone marrow mononuclear cells were harvested and immunophenotyped using previously described methods and percent EdU positive cells were then determined (Johnson et al. J. Clin. Invest. (2010) 120(7), 2528-2536). In brief, HSPCs were identified by expression of lineage markers (Lin-), Sca1 (S+), and c-Kit (K+).
Four hours before animals were sacrificed and the bone marrow was harvested, mice were treated with 100 μg of EdU by intraperitoneal injection. Three mice per group were sacrificed at 12 hours and the remaining three animals per group were sacrificed at 24 hours. Results are shown in FIG. 6A as the ratio of EdU positive cells for treated animals at 12 or 24 hour time points compared to control.
Further experiments were completed with Compound T examining dose response and longer periods of compound treatment. […] […].
Both compounds were administered at 150 mg/kg by oral gavage. One hour prior to harvesting bone marrow, EdU was IP injected to label cycling cells. Bone marrow was harvested at 12, 24, 36, and 48 hours after compound treatment and the percentage of EdU positive HSPC cells was determined at each time point.

[13] = plasma, iv, mouse, 10 mg/kg i.v.
[14] = plasma, mouse, 30 mg/kg oral gavage

CDK4/CyclinD1, sequence (P11802 whole entry, species assumed): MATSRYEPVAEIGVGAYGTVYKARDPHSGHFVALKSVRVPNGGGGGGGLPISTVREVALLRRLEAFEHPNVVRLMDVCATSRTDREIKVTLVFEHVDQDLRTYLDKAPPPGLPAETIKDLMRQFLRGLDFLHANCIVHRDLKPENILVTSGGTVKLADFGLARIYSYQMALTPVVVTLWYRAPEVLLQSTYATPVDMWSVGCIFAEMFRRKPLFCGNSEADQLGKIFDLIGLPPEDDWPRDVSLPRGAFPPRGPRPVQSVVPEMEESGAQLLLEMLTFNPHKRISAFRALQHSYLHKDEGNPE
CDK4/CyclinD1, sequence (P24385 whole entry partner, species assumed): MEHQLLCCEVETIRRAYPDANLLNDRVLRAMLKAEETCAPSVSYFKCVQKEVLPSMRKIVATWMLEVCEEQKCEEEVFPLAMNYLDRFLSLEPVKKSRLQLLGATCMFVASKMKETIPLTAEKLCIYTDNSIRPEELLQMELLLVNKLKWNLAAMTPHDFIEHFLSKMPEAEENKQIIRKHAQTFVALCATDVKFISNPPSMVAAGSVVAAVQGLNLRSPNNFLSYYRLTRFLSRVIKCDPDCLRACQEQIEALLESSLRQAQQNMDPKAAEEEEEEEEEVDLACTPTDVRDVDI

## CCC(C)CN1CCN(c2ccc(Nc3ncc4cc5n(c4n3)C3(CCCC3)CNC5=O)nc2)CC1 (stereo not shown) [FFF]
CDK2/CyclinA
  Fold Selectivity (CDK2/CycA/CDK4): 291
  IC50: 1370 nM
[1]; HS68 cells
  EC50: 650 nM
CDK4/CyclinD1
  IC50: 4.7 nM
CDK2/CyclinE
  Fold Selectivity (CDK2/CycE/CDK4): 966
  IC50: 4540 nM

## CCC(C)CN1CCN(c2ccc(Nc3ncc4cc5n(c4n3)C3(CCCC3)CNC5=O)nc2)CC1 (stereo not shown) [AAA]
CDK2/CyclinA
  Fold Selectivity (CDK2/CycA/CDK4): 918
  IC50: 2130 nM
[1]; HS68 cells
  EC50: 275 nM
CDK4/CyclinD1
  IC50: 2.3 nM
CDK2/CyclinE
  Fold Selectivity (CDK2/CycE/CDK4): 2591
  IC50: 6010 nM

## CC(=O)c1c(C)c2cnc(Nc3ccc(N4CCNCC4)cn3)nc2n(C2CCCC2)c1=O [PD0332991, 6-acetyl-8-cyclopentyl-5-methyl-2-(5-piperazin-1-yl-pyridin-2-ylammino)-8H-pyrido-[2,3-d]-pyrimidin-7-one]
[2]; 300 nM, HS68 cells
  time post wash out for cells to return to normal baseline cell division: greater than 48 hours
[2]; in vitro wash-out experiment
  duration of cell cycle arrest in human cells after compound is removed (wash-out): more than forty hours
[3]
  duration of sustained reduction in HSPC and myeloid progenitor EdU incorporation: greater than 36 hours
  time post oral dosing at which HSPC and myeloid progenitor cells return to baseline cell division: 48 h
[4]
  PK half-life: 1620 min
[5]
  duration of cell cycle arrest of HSPC after a single administration: approximately one week
[6]
  patients requiring a dose interruption: 71%
  patients requiring a dose reduction: 35%
[7]
  half-life at 1 uM: > 60 min
[8]
  return to baseline levels of cell division after wash out: took significantly longer to return to baseline levels of cell division
[9]
  effect on proliferation (EdU, percent of cells in S-phase): inhibits the Rb-positive cell line (WM2664)
[10]
  PK half-life: 360 min
[11]
  effect on proliferation (EdU, percent of cells in S-phase): does not affect the growth of the Rb-negative small cell lung cancer cell lines

## O=C1NCC2(CCCCC2)n2c1cc1cnc(Nc3ccc(N4CCNCC4)cn3)nc12 [Compound Q]
[12]; mice
  oral bioavailability (in words): low
[12]; mouse
  F: 2%
[12]; mouse, plasma, po, 30 mg/kg, mouse, 30 mg/kg oral gavage, read-out: t1/2 p.o. (converted)
  half-life: 48 min
[12]; [13]
  AUC(0-inf): 0.95 µM·h
  clearance: 44 mL/min/kg
[12]; plasma, iv, mouse, 10 mg/kg i.v., read-out: Vss
  Vd: 5.2 L/kg
[12]; [14]
  AUC: 0.15 µM·h
  Cmax: 160 nM
  Tmax: 30 min
HSPCs (bone marrow); 150 mg/kg oral gavage
  EdU incorporation into HSPCs at 12 and 24 hours compared to control: some reduction at 12 hours and started to return to baseline at 24 hours
HSPCs (bone marrow); oral gavage, mice
  G1-arrest of bone marrow stem cells (HSPC): dose dependent, transient, and reversible G1-arrest

## CC1CN(c2ccc(Nc3ncc4cc5n(c4n3)C3(CCCC3)CNC5=O)nc2)CC(C)N1CCC(C)(C)C (stereo not shown) [PPP]
CDK2/CyclinA
  Fold Selectivity (CDK2/CycA/CDK4): 3402
  IC50: 2640 nM
[1]; Homo sapiens, Hs68, HS68 cells
  EC50: 275 nM
CDK4/CyclinD1
  IC50: 0.8 nM
CDK2/CyclinE
  Fold Selectivity (CDK2/CycE/CDK4): 21263
  IC50: 16500 nM

## CCC(C)[C@@H]1CNC(=O)c2cc3cnc(Nc4ccc(N5CCN(C)CC5)cn4)nc3n21 (stereo partly shown) [VVV]
[1]; Homo sapiens, Hs68, HS68 cells
  EC50: 300 nM
CDK4/CyclinD1
  IC50: 7.4 nM
CDK2/CyclinE
  Fold Selectivity (CDK2/CycE/CDK4): 589
  IC50: 4380 nM
